# Experimental data reported in EP4497440A1, “USE OF 7-TRIFLUOROMETHYL-7ALPHA,25-DIHYDROXYCHOLESTEROL IN THE TREATMENT AND MODULATION OF AUTOIMMUNE AND INFLAMMATORY DISEASES OF THE NERVOUS SYSTEM AND NEURODEGENERATIVE DISEASES” (Gdanski Uniwersytet Medyczny, priority 2023, dated 2025).
# Entries after “also recorded” stand apart in the source; their conditions may differ.
# Columns and labels:
# [1] = test system: CD4+ cells; experiment: Cuprizone model: immunofluorescently tagged CD4+ cells in the central part of the corpus callosum; assay type: in vivo, mice; conditions: after 14 days of treatment in the cuprizone model, group E
# Description: Measurement of the quantity of immunofluorescently-tagged CD4+ cells in the central part of the corpus callosum following 14 days of treatment in the cuprizone model (Fig 7). Morphology of mouse blood in the cuprizone model and the in vivo model testing short-term pharmacotherapy of oxysterol CF3-7α,25OHC (Fig 10).
# A (Fig 7) control group: regular cuprizone-free chow for 9 weeks. Mice were euthanised after 9 weeks and tissue samples were taken for analysis. In these mice, myelin sheaths were not removed.
# B (Fig 7) control group with cuprizone: chow containing cuprizone for 9 weeks. The mice were euthanised following 9 weeks and tissue samples were taken for analysis. In the mice fed with cuprizone-containing chow myelin sheaths were removed.
# C (Fig 7) or #3 (Fig 8 and 9) vehicle control group - the mice were fed with chow containing cuprizone for 9 weeks, and then with regular chow without cuprizone for another 2 weeks. Over the 2 weeks on regular chow the mice in the vehicle control group were first injected vehicle #1: DMSO (intraperitoneal injection), 150 µl once a day, and then vehicle #2: canola oil, subcutaneously, 150 µl once a day.
# E (Fig 7) or #5 experimental group with oxysterol CF3-7α,25OHC - the mice were fed with chow containing cuprizone for 9 weeks, and then with regular chow without cuprizone for another 2 weeks. […]
# [2] = test system: lymphocytes; experiment: Short-term pharmacology model: blood count after a single injection; assay type: in vivo, mice; conditions: single subcutaneous injection
# Protocol: Mouse groups in the short-term pharmacology model (Fig 10): Control: one vehicle injection (canola oil). The number of lymphocytes in the group is marked on the graph with the transverse line. The vehicle injection was administered to the mice subcutaneously (100 µl), following which the mice were euthanized after 6 hours (8 mice), 12 hours (8 mice), 24 hours (8 mice), or 48 hours (8 mice).
# The 0.8 mg/kg dose group: single injection with CF3-7α,25OHC at the dose of 0.8 mg/kg. The oxysterol injection was administered to the mice subcutaneously (100 µl), following which the mice were euthanized after 6 hours (8 mice), 12 hours (8 mice), 24 hours (8 mice), or 48 hours (8 mice).
# The 4 mg/kg dose group: single injection with CF3-7α,25OHC at the dose of 4 mg/kg. The oxysterol injection was administered to the mice subcutaneously (100 µl), following which the mice were euthanized after 6 hours (8 mice), 12 hours (8 mice), 24 hours (8 mice), or 48 hours (8 mice).
# The 20 mg/kg dose group: a single injection with CF3-7α,25OHC at the dose of 20 mg/kg. The oxysterol injection was administered to the mice subcutaneously (100 µl), following which the mice were euthanized after 6 hours (8 mice), 12 hours (8 mice), 24 hours (8 mice), or 48 hours (8 mice).
# The 100 mg/kg dose group: a single injection with CF3-7α,25OHC at the dose of […]. […]
# [3] = test system: mouse organotypic cerebellar slices; experiment: Remyelination of organotypic cerebellar slices after LPC demyelination (Mbp mRNA by quantitative PCR); assay type: cell-based; conditions: LPC 0.4 mg/ml, then treatment in serum-free culture medium for 14-16 days; barbadin 16 µM, 7α,25OHC 0.1 µM, NIBR189 10 µM; concentration of CF3-7α,25OHC not given; vs untreated LPC slices
# Protocol: Organotypic cerebellar slices were sampled from ten-day old mice and then grown in an incubator for 14 days. After 14 days the myelin was chemically removed with LPC (0.4 mg/ml). Following the removal of the myelin sheaths, the slices were treated with: • 1. the control group: regular culture medium, without LPC • 2. LPC, then on serum-free culture medium for 14-16 days • 3. LPC followed by barbadin 16 µM in serum-free culture medium for 14-16 days • 4. LPC followed by 7α,25OHC 0.1 µM in serum-free culture medium for 14-16 days • 5. LPC followed by NIBR189 10 µM in serum-free culture medium for 14-16 days • 6. LPC followed by barbadin 16 µM + 7α,25OHC 0.1 µM in serum-free culture medium for 14-16 days
# Once the experiment was completed (remyelination for 14-16 days) the slices were collected and MBP mRNA levels were measured by the PCR quantitative method. In the mouse organotypic cerebellar slices in which myelin sheaths were chemically removed with lysophosphatidylcholine (LPC) spontaneous myelin regeneration took place except for the slices treated with a selective EBI2 receptor antagonist (NIBR189). The results once again reveal key significance of EBI2 intracellular signalling for myelin regeneration. […] Barbadin, which inhibits internalisation of the EBI2 receptor, is necessary to achieve the therapeutic effect (faster remyelination) in the case of non-modified oxysterol (Fig 1 and Fig 2a).
smiles,measurement,setting,value
"C[C@H](CCCC(C)(C)O)[C@H]1CC[C@H]2[C@H]3[C@H](CC[C@]12C)[C@@]1(C)CC[C@H](O)CC1=C[C@]3(O)C(F)(F)F [CF3-7α,25OHC, cholestene-7β-trifluoromethyl,3β,7α,25-triol]",count of CD4+ cells in the corpus callosum,[1],fewest; also recorded: lowest count
same,duration of the lymphocyte-reducing effect following administration,[2],24 h
same,lowest dose that reduces the level of lymphocytes,"[2]; doses 0.8, 4, 20, 100 mg/kg, blood count after 6, 12, 24 or 48 hours",4 mg/kg
same,remyelination (Mbp expression),[3],remyelinate quicker than slices not treated with anything; also recorded: remyelinate faster than the untreated slices
